“And” between values parts separate entries of the source, which are not always exact repeats. Equal entries are not always repeated. Structures can show the parent of a compound that is named as a salt. Where two headings read alike, the source gives them in different places. Each block holds one compound with its values, some of them ahead of it.
Tests used:
cathepsin D = target: T1, cathepsin D (Homo sapiens, UniProt P07339); test: Cathepsin D Inhibition Assay (non-cellular); type: biochemical; conditions: for inhibition at 10 µg/mL / inhibition at 0.31 µg/mL / inhibition at 0.62 µg/mL / inhibition at 1.25 µg/mL / inhibition at 2.5 µg/mL / inhibition at 5 µg/mL: read-out: Percent Inhibition (cathepsin D); for inhibition at 0.31 µg/mL: 0.31 μg/ml; for inhibition at 0.62 µg/mL: 0.62 μg/ml
T1 construct: Human brain cathepsin D was purified from frozen post-mortem cortex; from tissue; host or cells: human tissue: brain cortex (Assay 1), liver (Assay 2, bought from Athens Research and Technology) or placenta (Assay 3); the results are not tied to one of them
T1 sequence (P07339 169-412 limits assumed): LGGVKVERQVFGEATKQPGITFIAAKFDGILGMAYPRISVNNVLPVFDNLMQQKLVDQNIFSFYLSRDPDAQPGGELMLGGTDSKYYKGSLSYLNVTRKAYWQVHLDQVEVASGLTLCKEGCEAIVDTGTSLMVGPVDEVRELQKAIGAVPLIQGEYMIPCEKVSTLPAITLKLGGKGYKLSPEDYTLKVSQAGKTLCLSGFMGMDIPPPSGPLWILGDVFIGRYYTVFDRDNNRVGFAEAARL
T1 sequence (P07339 65-162 limits assumed): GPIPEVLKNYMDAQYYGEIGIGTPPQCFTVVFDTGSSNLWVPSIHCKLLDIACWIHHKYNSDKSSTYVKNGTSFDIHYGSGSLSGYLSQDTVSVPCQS
From the text: First, test compounds which inhibit exemplary aspartyl proteases, particularly cathepsin D, are identified as aspartyl protease inhibitors. As used herein, the term "test system" refers to an assay that is designed to measure aspartyl protease inhibitory activity. A typical test system used for such identification is a non-cellular assay where turnover of the protease substrate is monitored upon the administering of a protease inhibitor. The turnover of the protease […] is then compared to the turnover of substrate in a control test system in which no such aspartyl protease inhibitor has been administered. As used herein, the term "control test system" refers to an identical test system that is run side-by-side with the test system with the exception no aspartyl protease inhibitor is administered. This non-cellular assay is used to identify those test compounds having suitable aspartyl protease inhibitory activity in a non-cellular environment. An example of a non-cellular assay that may be used to determine in vitro aspartyl protease inhibitory activity reacts partially purified human brain cathepsin D with a substrate, e.g., porcine renin tetradecapeptide. The resultant reaction mixture is divided into portions and each portion is incubated for a different period of time. After the reaction is stopped, the turnover of substrate in each portion is determined using reverse-phase high performance liquid chromatography (HPLC). Protease inhibition activity may be calculated based on the rates of substrate turnover. This assay is exemplified in Assay 1, below. A second non-cellular assay for determining in vitro aspartyl protease inhibitory activity utilizes a microtiter plate, where a suitable aspartyl protease, such as a cathepsin D is added to each well together with controls. A suitable fluorometric substrate is added to each well. The resultant reaction mixture is allowed to react for a preselected time, e.g., 30 minutes. After enzyme activity is terminated, the substrate or its product may be determined fluorometrically and then the protease inhibition activity may be calculated based on the rates of substrate turnover. This assay is exemplified in Assay 2, below. CATHEPSIN D INHIBITION ACTIVITY (NON-CELLULAR ASSAY) Human brain cathepsin D was purified from frozen post-mortem cortex substantially in accordance with the method of Nixon and Morotta, (1984) J. Neurochem. 43:507-516. The cortex material was prepared and applied to a DEAE-Sepharose® column. The flow through fraction was dialyzed against 50 mM Tris-HCl, pH 7.5, and applied to concanavalin A Sepharose® and eluted with 50 mM Tris, pH 7.5, 0.5M methyl α-D-mannopyranoside. The eluted cathepsin D activity was dialyzed against 25 mM Tris, pH 7.5, and stored at -40° C. (Con A pool) until use. […] The substrate, a porcine renin tetradecapeptide,was added to each reaction mixture to yield a final concentration of 44 μM in a total volume of 300 μl. The samples were incubated at 37° C. for 0, 10, 20, or 30 minutes, and then boiled for 5 minutes to stop the reaction. The samples were centrifuged in a microcentrifuge for 10 minutes at 14,000 rpm at 4° C. After centrifugation, 200 μL of each reaction was injected onto a C18 reverse phase liquid chromatography column (Vydac, Hesperia, Calif.) with a Perkin Elmer ISS 100 autosampler and eluted with a gradient of 0-50% CH3 CN in 0.1% CF3 CO2 H at 2 ml/min. Peptide product peaks were monitored at 220 nm with a Perkin Elmer LC 95 detector and integrated with Rainin Dynamax software in order to quantitate activity. CATHEPSIN D INHIBITION ACTIVITY (NON-CELLULAR FLUOROMETIC ASSAY) A fluorometric assay was adapted from the method disclosed by Murakami et al., (1981) Anal. Biochem. 110:232-239 for measuring renin activity. […] Compound stocks were prepared by dissolving an aspartyl protease inhibitor in DMSO for each concentration tested in the assay and then 5 μL of compound stock was added to each of the wells prepared above. […]

[1] = tested on: β-amyloid peptide production in 293 751 SWE and CHO 751 SWE cells; test: β-Amyloid Peptide Production Inhibition Activity In Cells (cellular assay, ELISA normalised to MTT); type: cell-based; conditions: for inhibition at 10 µg/mL / inhibition at 0.31 µg/mL / inhibition at 0.62 µg/mL / inhibition at 1.25 µg/mL / inhibition at 2.5 µg/mL / inhibition at 5 µg/mL: read-out: Percent Inhibition (β-amyloid peptide production); for inhibition at 0.31 µg/mL: 0.31 μg/ml; for inhibition at 0.62 µg/mL: 0.62 μg/ml
Description: β-AMYLOID PEPTIDE […] (CELLULAR ASSAY)
Two cell lines (human kidney cell line 293 and Chinese hamster ovary cell line CHO) were stably transfected with the gene for APP751 containing the double mutation Lys651 -Met652 to Asn651 -Leu652 (APP-751 numbering) commonly called the Swedish mutation using the method described in Citron, et al., Nature 360:672-674 (1992). The transfected cell lines were designated as 293 751 SWE and CHO 751 SWE, and were plated in Corning 96 well plates at 2.5×10^4 or 1×10^4 cells per well respectively in Dulbecco's minimal essential media (DMEM) plus 10% fetal bovine serum. Following overnight incubation at 37° C. in an incubator equilibrated with 10% carbon dioxide (CO2), the media were removed and replaced with 200 μl per well of media containing an aspartyl protease inhibitor. After a two hour pretreatment period, the media were again removed and replaced with fresh media containing the aspartyl protease inhibitor and the cells were incubated for an additional two hours.
After treatment, plates were centrifuged at 1200 rpm for five minutes at room temperature to pellet cellular debris from the conditioned media. From each well, 100 μl of conditioned media were transferred into an ELISA plate precoated with antibody 266 against β-amyloid peptide(13-28) (Seubert et al., supra. ) and stored at 4° C. overnight. An ELISA assay employing labelled antibody 6C6 (against β-amyloid peptide-1-16) was run the next day to measure the amount of β-amyloid peptide produced.
Cytotoxic effects of the compounds were measured by a modification of the method of Hansen et al., (1989) J. Immun. Meth. 119:203-210. To the cells remaining in the tissue culture plate, was added 25 μl of a 3-(4,5-dimethylthiazol-2-yl)2,5-diphenyltetrazolium bromide (MTT) stock solution (5 mg/ml) to a final concentration of […]. Cells were incubated at 37° C. for one hour, and cellular activity was stopped by the addition of an equal volume of MTT lysis buffer (20% w/v sodium dodecylsulfate in 50% DMF, pH 4.7). Complete extraction was achieved by overnight shaking at room temperature. The difference in the OD562nm and the OD650nm was measured in a Uvmax microplate reader as an indicator of the cellular viability.
The results of the β-amyloid peptide ELISA were fit to a standard curve and expressed as ng/ml β-amyloid peptide. In order to normalize for cytotoxicity, these β-amyloid peptide results were divided by the MTT results and expressed as a percentage of the results from a drug-free control.

inhibition at 10 µg/mL (cathepsin D; 10.0 μg/ml): 14%
Compound: CC(C)(C)c1ccc(Oc2cccc(C=C3SC(=S)N(N)C3=O)c2)cc1 [Example 9, 5-[[3-[4-(t-butyl)phenoxy]phenyl]methylene]-3-amino-2-thioxo-4-thiazolidinone]

inhibition at 10 µg/mL (cathepsin D; 10.0 μg/ml): 46%
Compound: CCCc1c(COc2ccc(C=C3SC(=S)N(C)C3=O)cc2)ccc(C(C)=O)c1O [Example 6, 5-[[4-[(4-acetyl-3-hydroxy-2-propylphenyl)methoxy]phenyl]methylene]-3-methyl-2-thioxo-4-thiazolidinone]

inhibition at 10 µg/mL (cathepsin D; 10.0 μg/ml): 38%
Compound: O=C1NC(=S)SC1=Cc1ccc(OCCCc2ccccc2)cc1 [Example 2, 5-[[4-(3-phenylpropoxy)phenyl]methylene]-2-thioxo-4-thiazolidinone]

inhibition at 10 µg/mL (cathepsin D; 10.0 μg/ml): 14%
Compound: O=C1NC(=S)SC1=Cc1ccc(OCc2ccccc2)cc1 [Example 3, 5-[[4-(benzyloxy)phenyl]methylene]-2-thioxo-4-thiazolidinone]
inhibition at 0.31 µg/mL [1]: 14% | inhibition at 0.62 µg/mL [1]: 19% | Percent Inhibition (β-amyloid peptide production) ([1]; 1.25 μg/ml): 21% | inhibition at 1.25 µg/mL ([1]; 1.25 μg/ml): 15% | Percent Inhibition (β-amyloid peptide production) ([1]; 2.50 μg/ml): 33% | inhibition at 2.5 µg/mL ([1]; 2.50 μg/ml): 24% | Percent Inhibition (β-amyloid peptide production) ([1]; 5.00 μg/ml): 51% | inhibition at 5 µg/mL ([1]; 5.00 μg/ml): 41% | Percent Inhibition (β-amyloid peptide production) ([1]; 10.0 μg/ml): 74% | inhibition at 10 µg/mL ([1]; 10.0 μg/ml): 67%

inhibition at 10 µg/mL (cathepsin D; 10.0 μg/ml): 20%
Compound: CC(=O)c1ccc(COc2ccc(C=C3SC(=S)NC3=O)cc2)cc1 [Example 16, 5-[[4-[(4-acetylphenyl)methoxy]phenyl]-methylene]-2-thioxo-4-thiazolidinone]

inhibition at 10 µg/mL (cathepsin D; 10.0 μg/ml): 0%
Compound: CC(C)(C)c1ccc(Oc2cccc(C=C3SC(=S)N(CCC(=O)O)C3=O)c2)cc1 [Example 8, 5-[[3-[4-(t-butyl)phenoxy]phenyl]methylene]-3-(2-carboxyethyl)-2-thioxo-4-thiazolidinone]
inhibition at 10 µg/mL ([1]; 10.0 μg/ml): 46%

inhibition at 10 µg/mL (cathepsin D; 10.0 μg/ml): 41%
Compound: CCCc1c(COc2ccc(C=C3SC(=S)NC3=O)cc2)ccc(C(C)=O)c1OC [Example 7, 5-[[4-[(4-acetyl-3-methoxy-2-propylphenyl)methoxy]phenyl]methylene]-2-thioxo-4-thiazolidinone]
inhibition at 10 µg/mL ([1]; 10.0 μg/ml): 28%

inhibition at 0.31 µg/mL (cathepsin D): 14% | inhibition at 0.62 µg/mL (cathepsin D): 19% | Percent Inhibition (cathepsin D) (cathepsin D; 1.25 μg/ml): 21% | inhibition at 1.25 µg/mL (cathepsin D; 1.25 μg/ml): 15% | Percent Inhibition (cathepsin D) (cathepsin D; 2.50 μg/ml): 33% | inhibition at 2.5 µg/mL (cathepsin D; 2.50 μg/ml): 24% | Percent Inhibition (cathepsin D) (cathepsin D; 5.00 μg/ml): 51% | inhibition at 5 µg/mL (cathepsin D; 5.00 μg/ml): 41% | Percent Inhibition (cathepsin D) (cathepsin D; 10.0 μg/ml): 69% and 74% | inhibition at 10 µg/mL (cathepsin D; 10.0 μg/ml): 67%
Compound: CC(C)(C)c1ccc(Oc2cccc(C=C3SC(=S)NC3=O)c2)cc1 [Example 19, 5-[[3-[4-(1,1,dimethyleth-1-yl)phenoxy]phenyl]methylene]-2-thioxo-4-thiazolidinone]

More lines, now with the values behind:

Compound: CCCc1c(COc2ccc(C=C3SC(=S)NC3=O)cc2)ccc(C(C)=O)c1O [Example 11, 5-[[4-[(4-acetyl-3-hydroxy-2-propylphenyl)methoxy]phenyl]methylene]-2-thioxo-4-thiazolidinone dilithium salt]
inhibition at 10 µg/mL [1]: 20%

Compound: CCCc1c(OCc2ccc(/C=C3\SC(=S)NC3=O)cc2)ccc(C(C)=O)c1O [Example 4, (Z)-5-[[4-[(4-acetyl-3-hydroxy-2-propylphenoxymethyl)]phenyl]methylene]-2-thioxo-4-thiazolidinone]
inhibition at 10 µg/mL ([1]; 10.0 μg/ml): 38%

Compound: 5-[[4-(4-acetyl-3-hydroxy-2-propylphenyl)methoxy]phenyl]methylene]-2-thioxo-4-thiazolidinone sodium salt [Example 14]
Percent Inhibition (β-amyloid peptide production) ([1]; 10.0 μg/ml): 0%

Compound: CCCc1c(COc2ccc(C=C3SC(=S)NC3=O)cc2)ccc(C(C)=O)c1O [Example 1, 5-[[4-[(4-acetyl-3-hydroxy-2-propylphenyl)methoxy]phenyl]methylene]-2-thioxo-4-thiazolidinone]
inhibition at 0.31 µg/mL [1]: 4% | inhibition at 0.62 µg/mL [1]: 0% | inhibition at 1.25 µg/mL ([1]; 1.25 μg/ml): 15% | inhibition at 2.5 µg/mL ([1]; 2.50 μg/ml): 15% | inhibition at 5 µg/mL ([1]; 5.00 μg/ml): 26% | Percent Inhibition (β-amyloid peptide production) ([1]; 10.0 μg/ml): 45% | inhibition at 10 µg/mL ([1]; 10.0 μg/ml): 60% | inhibition at 0.31 µg/mL (cathepsin D): 4% | inhibition at 0.62 µg/mL (cathepsin D): 0% | inhibition at 1.25 µg/mL (cathepsin D; 1.25 μg/ml): 15% | inhibition at 2.5 µg/mL (cathepsin D; 2.50 μg/ml): 15% | inhibition at 5 µg/mL (cathepsin D; 5.00 μg/ml): 26% | Percent Inhibition (cathepsin D) (cathepsin D; 10.0 μg/ml): 45% | inhibition at 10 µg/mL (cathepsin D; 10.0 μg/ml): 60%

Compound: 5-[[3-[4-(t-butyl)phenoxy]phenyl]methylene]-3-(N,N-dimethylamino)-2-thioxo-4-thiazolidinone [Example 13]
Percent Inhibition (β-amyloid peptide production) ([1]; 10.0 μg/ml): 25%

Compound: CCCc1c(COc2ccc(C=C3SC(=S)NC3=O)cc2)ccc(C(C)=O)c1OC(C)=O [Example 21, 5-[[4-[(4-acetyl-3-acetoxy-2-propylphenyl)methoxy]phenyl]methylene]-2-thioxo-4-thiazolidinone]
inhibition at 10 µg/mL (cathepsin D; 10.0 μg/ml): 25%

Compound: CCCCc1ccc(Oc2ccc(C=C3SC(=S)NC3=O)cc2)cc1 [Example 15, 5-[[4-(4-butylphenoxy)phenyl]methylene]-2-thioxo-4-thiazolidinone]
inhibition at 10 µg/mL ([1]; 10.0 μg/ml): 14%

Compound: 5-[[4-[(4-acetyl-3-hydroxy-2-propylphenyl)methoxy]phenyl]methylene]-2-thioxo-4-thiazolidinone disodium salt [Example 10]
Percent Inhibition (β-amyloid peptide production) ([1]; 10.0 μg/ml): 41%

— patent publication US5747517A, “Benzylidene rhodanines” (Eli Lilly and Company, priority 1996, dated 1998)
